# Results reported in patent US20110098177A1, “METHODS AND COMPOSITIONS OF PLANT MICRONUTRIENTS” (NOVUS INTERNATIONAL INC., priority 2006, published 2011).
# Assays:
# Assay type in all cases: in vivo
# [1] = tested on: soybean plants (Asgrow 1102); assay: Soybean seed yield (Examples 11-12)
# Experimental: (§1) The following experiments were performed on soybean plants growing in open-field plots during the summer and fall of 2008 at two production fields in West Central Minnesota. […] Trial design was a randomized complete block with 4 replications. Each plot measured 10' by 30' and consisted of five 22'' rows. Although all five rows of each plot were treated, only the center three rows (25' in length) of each plot were machine harvested. The two fields selected for these studies had historical Iron Deficiency Chlorosis (IDC) issues. The two field sites were planted by farmers with elite Roundup Ready commodity type soybean varieties with IDC tolerance (Asgrow 1102, Monsanto Corp.). […] BIOX-M was applied at a rate of 1.12 kg Mn/ha. […] All V4 treatments were applied in 10 gallons per acre of water with a backpack sprayer with a hand boom designed to “band” apply product directly to the plant row. Three nozzles with ConeJet TXVS-2 tips were oriented on either side and over the top of each row. This maximized the applied product to the plant tissue itself and minimized application of product to the soil surface. […] The V6 treatments (where applicable) were applied in 20 gallons per acre of water to increase the suspension of the BIOX products. Soybean seed was harvested after soybean maturity was reached (3 October at […], and 17 Oct. 2008 at Foxhome) and seed yields for each experimental treatment group were determined. In addition, seed samples from each treatment were dried to 13% moisture content, then analyzed for protein and oil content.
# Tygress tomato plants [2] = assay: Yields of tomato fruits, greenhouse (Examples 4-6)
# Experimental: (§2) The following experiments were performed in a green house during the fall of 2008 and spring of 2009 at GCREC, Balm, University of Florida. Crop set-up, procedures and variables were as follows.
# (§3) Transplants of Tygress' tomato plants were planted in 2-gallon pots filled with commercial planting medium with nutrient concentration of Fe, Zn, Mn, Cu being negligible and insufficient for crop growth. Irrigation and non-micronutrient fertilizer were provided daily through microsprinklers at recommended rates for tomato production in Florida. No pesticides were used. Treatments were as described in Tables 4, 5 and 6 below.
# (§4) Treatments were applied at 5 WAT (weeks after transplanting) using a water volume of 200 mL/plant. A non-ionic surfactant was added. Foliar tissue analysis was performed at 3 and 7 WAT on the non-applied newest leaves. The concentrations of N, P, K, Mg, Ca, B, Zn, Mn, Fe, and Cu in the foliar tissue were determined from foliar analysis by a commercial laboratory at 2 weeks before treatment and again at 2 weeks after treatment.
# (§5) Deionized water was used for foliar applications, and other nutrients were applied as appropriate under non-limiting conditions. Marketable fruit were collected three times during the growing season, starting at 10 WAT (5 weeks after the initial treatment). Tomato fruit was graded as extra-large, large and medium. Non-marketable fruit were harvested and number and weight recorded but not sized.
# (§6) Experimental design was a randomized complete block design with 6 replications. Data were analyzed using a general linear model, and means were separated using an LSD test at the 5% significance level.
# Tygress tomato plants [3] = assay: Foliar nutrient concentration 2 weeks after treatment, greenhouse tomato (Examples 4-6); details: Mn 1.0 lb/acre
# Experimental: as §2, §3, §4, §5, §6
# [4] = tested on: soybean plants (Asgrow 1102); assay: ICP-MS micronutrient content of soybean trifoliates (Examples 11-12); set-up: Micronutrient content from ICP-MS analysis: Mn: unit not given here; details: for Micronutrient content from ICP-MS analysis: Fe: in ppm (unit assumed)
# Experimental: The following experiments were performed on soybean plants growing in open-field plots during the summer and fall of 2008 at two production fields in West Central Minnesota. […] Trial design was a randomized complete block with 4 replications. Each plot measured 10' by 30' and consisted of five 22'' rows. Although all five rows of each plot were treated, only the center three rows (25' in length) of each plot were machine harvested. The two fields selected for these studies had historical Iron Deficiency Chlorosis (IDC) issues. The two field sites were planted by farmers with elite Roundup Ready commodity type soybean varieties with IDC tolerance (Asgrow 1102, Monsanto Corp.). […] BIOX-M was applied at a rate of 1.12 kg Mn/ha. […] All V4 treatments were applied in 10 gallons per acre of water with a backpack sprayer with a hand boom designed to “band” apply product directly to the plant row. Three nozzles with ConeJet TXVS-2 tips were oriented on either side and over the top of each row. This maximized the applied product to the plant tissue itself and minimized application of product to the soil surface. […] The V6 treatments (where applicable) were applied in 20 gallons per acre of water to increase the suspension of the BIOX products. […] The harvested plants were dried, ground, and subjected to Inductively Coupled Plasma-Mass Spectrometry (ICP-MS) analysis to determine plant micronutrient content.
# [5] = tested on: soybean plants (Asgrow 1102); assay: Visual greenness ratings (1-5 scale) of soybean plants, open-field (Examples 11-12)
# Experimental: The following experiments were performed on soybean plants growing in open-field plots during the summer and fall of 2008 at two production fields in West Central Minnesota. […] Trial design was a randomized complete block with 4 replications. Each plot measured 10' by 30' and consisted of five 22'' rows. Although all five rows of each plot were treated, only the center three rows (25' in length) of each plot were machine harvested. The two fields selected for these studies had historical Iron Deficiency Chlorosis (IDC) issues. The two field sites were planted by farmers with elite Roundup Ready commodity type soybean varieties with IDC tolerance (Asgrow 1102, Monsanto Corp.). […] BIOX-M was applied at a rate of 1.12 kg Mn/ha. […] All V4 treatments were applied in 10 gallons per acre of water with a backpack sprayer with a hand boom designed to “band” apply product directly to the plant row. Three nozzles with ConeJet TXVS-2 tips were oriented on either side and over the top of each row. This maximized the applied product to the plant tissue itself and minimized application of product to the soil surface. […] The V6 treatments (where applicable) were applied in 20 gallons per acre of water to increase the suspension of the BIOX products.
# [6] = tested on: soybean plants (Asgrow 1102); assay: Soybean seed protein and oil content (Examples 11-12); details: in %
# Experimental: as §1
molecule,measurement,setting,value
"O=S(=O)([O-])[O-].[Mn+2] [BIOX-INM, manganese sulfate, reference compound]",Yield,"[1]; 3.27 kg/ha, V4, Foxhome",45.05 Bu/A
same,Yield,"[1]; 3.27 kg/ha, V4, Renville",27.13 Bu/A
same,Marketable tomato yield compared with non-treated control (in words),"Tygress tomato plants [2]; BIOX-M at 1.23 lb/acre or more, BIOX-EDM at 2.0 lb/acre, Mn-sulfate at 1.0 lb/acre",significantly higher than the non-treated control
same,Marketable yield,"Tygress tomato plants [2]; Mn 1.0 lb/acre, tomato fruits",4.0 a lb/plant
same,B concentration in tomato leaves,Tygress tomato plants [3]; 2 weeks after Mn treatment,25 ppm
same,Ca concentration in tomato leaves,Tygress tomato plants [3]; 2 weeks after Mn treatment,0.6%
same,Cu concentration in tomato leaves,Tygress tomato plants [3]; 2 weeks after Mn treatment,5 ppm
same,Fe concentration in tomato leaves,Tygress tomato plants [3]; 2 weeks after Mn treatment,117 ppm
same,K concentration in tomato leaves,Tygress tomato plants [3]; 2 weeks after Mn treatment,3.2%
same,Mg concentration in tomato leaves,Tygress tomato plants [3]; 2 weeks after Mn treatment,0.3%
same,N concentration in tomato leaves,Tygress tomato plants [3]; 2 weeks after Mn treatment,3.4%
same,P concentration in tomato leaves,Tygress tomato plants [3]; 2 weeks after Mn treatment,0.6%
same,Zn concentration in tomato leaves,Tygress tomato plants [3]; 2 weeks after Mn treatment,34 ppm
same,Foliar Mn concentration,Tygress tomato plants [3]; tomato leaves 2 weeks after Mn treatment,80.9 a ppm
same,Micronutrient content from ICP-MS analysis: Mn,"[4]; 3.27 kg/ha, V4, Foxhome",86.58
same,Micronutrient content from ICP-MS analysis: Fe,"[4]; 3.27 kg/ha, V4, Foxhome",87.35
same,Micronutrient content from ICP-MS analysis: Mn,"[4]; 3.27 kg/ha, V4, Renville",83.90
same,Micronutrient content from ICP-MS analysis: Fe,"[4]; 3.27 kg/ha, V4, Renville",101.17
same,Mean visual greenness scores (1-5),"[5]; 3.27 kg/ha, V4, Jul. 15, 2008 Rating, Foxhome",3.0
same,Mean visual greenness scores (1-5),"[5]; 3.27 kg/ha, V4, Jul. 15, 2008 Rating, Renville",2.4
same,Mean visual greenness scores (1-5),"[5]; 3.27 kg/ha, V4, Jul. 29, 2008 Rating, Foxhome","1.5 A, B, C"
same,Mean visual greenness scores (1-5),"[5]; 3.27 kg/ha, V4, Jul. 29, 2008 Rating, Renville",1.0
same,Oil content (13% moisture),"[6]; 3.27 kg/ha, V4, Foxhome",18.32
same,Protein content (13% moisture),"[6]; 3.27 kg/ha, V4, Foxhome",32.63
same,Oil content (13% moisture),"[6]; 3.27 kg/ha, V4, Renville",19.80
same,Protein content (13% moisture),"[6]; 3.27 kg/ha, V4, Renville",32.36
"EDDHA chelated iron [BIOX-EDDI, reference compound]",Yield,"[1]; 2.23 kg/ha, V4, V6, Foxhome",45.28 Bu/A
same,Yield,"[1]; 2.23 kg/ha, V4, V6, Renville",24.15 Bu/A
same,Yield,"[1]; 2.23 kg/ha, V4, Foxhome",38.98 Bu/A
same,Yield,"[1]; 2.23 kg/ha, V4, Renville",27.19 Bu/A
same,Micronutrient content from ICP-MS analysis: Mn,"[4]; 2.23 kg/ha, V4, V6, Foxhome",66.03
same,Micronutrient content from ICP-MS analysis: Fe,"[4]; 2.23 kg/ha, V4, V6, Foxhome",86.15
same,Micronutrient content from ICP-MS analysis: Mn,"[4]; 2.23 kg/ha, V4, V6, Renville",91.09
same,Micronutrient content from ICP-MS analysis: Fe,"[4]; 2.23 kg/ha, V4, V6, Renville",99.56
same,Micronutrient content from ICP-MS analysis: Mn,"[4]; 2.23 kg/ha, V4, Foxhome",91.22
same,Micronutrient content from ICP-MS analysis: Fe,"[4]; 2.23 kg/ha, V4, Foxhome",82.37
same,Micronutrient content from ICP-MS analysis: Mn,"[4]; 2.23 kg/ha, V4, Renville",86.45
same,Micronutrient content from ICP-MS analysis: Fe,"[4]; 2.23 kg/ha, V4, Renville",96.89
same,Mean visual greenness scores (1-5),"[5]; 2.23 kg/ha, V4, V6, Jul. 15, 2008 Rating, Foxhome",2.1
same,Mean visual greenness scores (1-5),"[5]; 2.23 kg/ha, V4, V6, Jul. 15, 2008 Rating, Renville",2.9
same,Mean visual greenness scores (1-5),"[5]; 2.23 kg/ha, V4, V6, Jul. 29, 2008 Rating, Foxhome",1.0 C
same,Mean visual greenness scores (1-5),"[5]; 2.23 kg/ha, V4, V6, Jul. 29, 2008 Rating, Renville",1.4
same,Mean visual greenness scores (1-5),"[5]; 2.23 kg/ha, V4, Jul. 15, 2008 Rating, Foxhome",2.8
same,Mean visual greenness scores (1-5),"[5]; 2.23 kg/ha, V4, Jul. 15, 2008 Rating, Renville",2.6
same,Mean visual greenness scores (1-5),"[5]; 2.23 kg/ha, V4, Jul. 29, 2008 Rating, Foxhome",2.0 A
same,Mean visual greenness scores (1-5),"[5]; 2.23 kg/ha, V4, Jul. 29, 2008 Rating, Renville",1.3
same,"Greenness of soybean plants compared to control, statement","[5]; BIOX-EDDI applied at V4 only, Foxhome site, 29 July rating",not when applied at V4 only
same,Oil content (13% moisture),"[6]; 2.23 kg/ha, V4, V6, Foxhome",18.56
same,Protein content (13% moisture),"[6]; 2.23 kg/ha, V4, V6, Foxhome",32.58
same,Oil content (13% moisture),"[6]; 2.23 kg/ha, V4, V6, Renville",19.97
same,Protein content (13% moisture),"[6]; 2.23 kg/ha, V4, V6, Renville",31.97
same,Oil content (13% moisture),"[6]; 2.23 kg/ha, V4, Foxhome",18.41
same,Protein content (13% moisture),"[6]; 2.23 kg/ha, V4, Foxhome",32.56
same,Oil content (13% moisture),"[6]; 2.23 kg/ha, V4, Renville",20.22
same,Protein content (13% moisture),"[6]; 2.23 kg/ha, V4, Renville",32.14
